Consider 1 compound from patent US20220193111A1, “Method of Treatment” (The University Court of the University of Edinburgh, priority 2018, published 2022).

The subject of the experiment is HUVECs treated with TNF-α/IL-1β. The experiment is described as follows: Rescue of TNF-α/IL-1β-induced EndMT in HUVECs. The class given is cell-based, human. To be noted: 10 μM, HUVECs with TNF-α/IL-1β 6 days. The method, then:
Human umbilical vein ECs (HUVECs; Lonza) were grown in EGM-2 (comprising EBM-2 with growth factors and other supplements) with 2% Foetal Bovine Serum. Confluent HUVECs were treated with 10 ng/ml TNF-α, IL-1β, TGFβ2 (PeproTech); medium and cytokines were changed every two days. SB431542 (Tocris) has been used at the dose of 10 μM. HEK293T cells (ATCC®, CRL-11268) were cultured in D-MEM with 10% FBS (Life Technologies).
Total RNA was extracted using miReasy kit (Qiagen). Real-time quantification to measure miRNAs was performed with the TaqMan miRNA reverse transcription kit and miRNA assay (Life Technology) using Lightcycler 480 (Roche). miRNAs expression was normalized to the U6 […] (snRU6). For mRNA analysis, cDNA was amplified by quantitative real-time PCR (qPCR) and normalized to 18S ribosomal RNA. Each reaction was performed in triplicate. Quantification was performed by the 2^−ΔΔCt method^52. qPCR was used to measure the expression of miR-148b (miR-148b-3p Thermo Fisher Scientific, Cat. #4426961), snRU6 (ThermoFisher Scientific, Cat. #4331182), TGFβ2, SMAD2, CD31, VE-Cadherin, COL1A1, α-SMA, SLUG, VIM, SNAIL, TWIST, ZEB1/2 and 18S rRNA. Primers are pre-designed from Sigma (KiCgStart™ Primers).
Lipofectamine RNAiMAX (Thermo Fisher Scientific) was used to transfect HUVECs with miR-148b mimic, anti-miR-148b and mimic or anti-miR control (25 nM and […], respectively final concentration) or with siRNA targeting SMAD2 (20 nM final concentration), according to the manufacturer's instructions. jetPEI-HUVECs (Polyplus) was used to transfect HUVECs with DNA plasmids. The following functional assays were performed: BrdU incorporation assay using Cell Proliferation colorimetric assay (Roche); Matrigel assay with HUVECs was performed as previously described using BD Matrigel Basement Membrane Matrix (BD Biosciences)^53.
Proteins were extracted from cultured cells or muscles by using ice-cold buffer A (50 mM Hepes, 150 mM NaCl, 1 mM EDTA, 1 mM EGTA, 25 mM NaF, 5 mM NaPPi, 1%Triton, 1% NP40, 1 mM Na3VO4, 0.25% sodium deoxycholate, 0.5 mM Na-orthovanadate, 1 mM benzamidine, 0.1 mM phenylmethylsulfonyl fluoride). Protein concentration was determined using the Bio-Rad Protein Assay Reagent (Bio-Rad Laboratories, UK). Detection of proteins by Western blot analyses was done following separation of whole cell extracts (20 μg) on SDS-polyacrylamide gels. Proteins were transferred to nitrocellulose membranes and probed with the following antibodies: TGFβ2 (Abcam, ab36495, 1:1000), SMAD2 (SantaCruz Biotechnology, Santa Cruz, Calif., USA; #3102, 1:1000), p-SMAD2 (465/467) (Cell Signaling; #3108, 1:1000); CD31 (Abcam., 1:1000), VE-Cadherin (Abcam, ab33168, 1:1000), COL1A1 (Abcam, ab138492, 1:200), FSP-1 (5100A4; Abcam, ab41532, 1:1000), SLUG (Abcam, ab27568, 1:1000), β-actin (Abcam, ab16039, 1:4000), HDAC3 (GeneTex GTX113303, 1:1000) and GAPDH (GeneTex, GT239, 1:1000) (both used as loading control). For detection, the inventors used secondary antibodies conjugated to horseradish peroxidase which were rabbit anti-mouse (Abcam, ab97046, 1:5000) and goat anti-rabbit (Abcam, ab6721, 1:10000). Detection was developed by chemiluminescence reaction (ECL) (Immunoblot, Millipore, 23225).
Cells were fixed using 4% paraformaldehyde in PBS at room temperature for 15 min. For intracellular staining, fixed cells were permeabilized using 0.5% Triton X-100 in PBS (Sigma-Aldrich) or 0.1% Saponin in PBS at room temperature for 10 min. The blocking of […] antibody activity was performed using 3% bovine serum albumin (BSA) in PBS for 1 hour. Samples were incubated with antibodies to CD31 (Abcam, ab28364, 1:50), VE-cadherin (Abcam, ab33168, 1:100), FSP-1 (Abcam, ab41532, 1:200) and COL1A1 (Abcam, ab138492, 1:100) in PBS containing 1% BSA at 4° C. overnight. […]

Consider `NC(=O)c1ccc(-c2nc(-c3ccc4c(c3)OCO4)c(-c3ccccn3)[nH]2)cc1` [SB431542, reference compound], for which the “endothelial markers (CD31, VE-Cadherin) expression” value is “did not rescue” and the “level of SMAD2 phosphorylation” value was “reduced”. The “endothelial markers (CD31, VE-Cadherin) expression” value (listed as SB43152) is reported as “did not restore”.
